Assay results published in the NIST ThermoML archive (doi:10.1021/je060271a).
± gives the expanded uncertainty stated by the source.

Conditions: Liquid, Vibrating tube method

CCCCCCC(=O)OCC(COC(=O)CCCCCC)(COC(=O)CCCCCC)COC(=O)CCCCCC [pentaerythritol tetraheptanoate]
Conditions | mass density [kg/m3]
303.14 K, 15632 kPa | 980.3 ± 1.2
303.14 K, 15661 kPa | 980.3 ± 1.2
303.14 K, 15697 kPa | 980.2 ± 1.2
303.14 K, 15727 kPa | 980.3 ± 1.2
303.14 K, 15793 kPa | 980.4 ± 1.2
303.14 K, 15884 kPa | 980.5 ± 1.2
303.14 K, 15938 kPa | 980.5 ± 1.2
303.14 K, 16023 kPa | 980.5 ± 1.2
303.14 K, 16056 kPa | 980.5 ± 1.2
303.14 K, 16112 kPa | 980.6 ± 1.2
303.14 K, 16138 kPa | 980.6 ± 1.2
303.14 K, 16199 kPa | 980.7 ± 1.2
303.14 K, 16259 kPa | 980.6 ± 1.2
303.14 K, 16286 kPa | 980.6 ± 1.2
303.14 K, 16377 kPa | 980.7 ± 1.2
303.14 K, 16405 kPa | 980.8 ± 1.2
303.14 K, 16470 kPa | 980.7 ± 1.2
303.14 K, 16655 kPa | 981 ± 1.2
303.14 K, 16744 kPa | 980.9 ± 1.2
303.14 K, 16780 kPa | 980.9 ± 1.2
303.14 K, 16840 kPa | 981 ± 1.2
303.14 K, 16876 kPa | 981 ± 1.2
303.14 K, 17172 kPa | 981.2 ± 1.2
303.14 K, 17203 kPa | 981.2 ± 1.2
303.14 K, 17235 kPa | 981.3 ± 1.2
303.14 K, 17267 kPa | 981.3 ± 1.2
303.14 K, 17439 kPa | 981.4 ± 1.2
303.14 K, 17478 kPa | 981.3 ± 1.2
303.14 K, 17511 kPa | 981.3 ± 1.2
303.14 K, 17543 kPa | 981.3 ± 1.2
303.14 K, 17576 kPa | 981.4 ± 1.2
303.14 K, 17615 kPa | 981.3 ± 1.2
303.14 K, 17648 kPa | 981.5 ± 1.2
303.14 K, 17688 kPa | 981.4 ± 1.2
303.14 K, 17722 kPa | 981.5 ± 1.2
303.14 K, 18010 kPa | 981.6 ± 1.2
303.14 K, 18086 kPa | 981.7 ± 1.2
303.14 K, 18423 kPa | 981.9 ± 1.2
303.14 K, 18547 kPa | 981.9 ± 1.2
303.14 K, 18582 kPa | 981.9 ± 1.2
303.14 K, 18643 kPa | 982 ± 1.2
303.14 K, 18679 kPa | 981.9 ± 1.2
303.14 K, 18709 kPa | 982 ± 1.2
303.14 K, 18745 kPa | 982.1 ± 1.2
303.14 K, 18776 kPa | 982 ± 1.2
303.14 K, 18806 kPa | 982 ± 1.2
303.14 K, 18836 kPa | 982.2 ± 1.2
303.14 K, 18874 kPa | 982.1 ± 1.2
303.14 K, 18904 kPa | 982.1 ± 1.2
303.14 K, 19140 kPa | 982.3 ± 1.2
303.14 K, 19172 kPa | 982.2 ± 1.2
303.14 K, 19205 kPa | 982.4 ± 1.2
303.14 K, 19237 kPa | 982.3 ± 1.2
303.14 K, 19276 kPa | 982.4 ± 1.2
303.14 K, 19309 kPa | 982.5 ± 1.2
303.14 K, 19518 kPa | 982.4 ± 1.2
303.14 K, 19558 kPa | 982.6 ± 1.2
303.14 K, 19592 kPa | 982.5 ± 1.2
303.14 K, 19625 kPa | 982.6 ± 1.2
303.14 K, 19666 kPa | 982.5 ± 1.2
303.14 K, 19700 kPa | 982.5 ± 1.2
303.14 K, 19734 kPa | 982.6 ± 1.2
303.14 K, 19808 kPa | 982.7 ± 1.2
303.14 K, 19842 kPa | 982.6 ± 1.2
303.14 K, 19884 kPa | 982.6 ± 1.2
303.14 K, 20108 kPa | 982.9 ± 1.2
303.14 K, 20178 kPa | 982.8 ± 1.2
303.14 K, 20221 kPa | 982.9 ± 1.2
303.14 K, 20257 kPa | 982.9 ± 1.2
303.14 K, 20293 kPa | 982.9 ± 1.2
303.14 K, 20850 kPa | 983.3 ± 1.2
303.14 K, 20889 kPa | 983.2 ± 1.2
303.14 K, 21395 kPa | 983.7 ± 1.2
303.14 K, 21485 kPa | 983.6 ± 1.2
303.14 K, 21938 kPa | 983.8 ± 1.2
303.14 K, 21981 kPa | 983.8 ± 1.2
303.14 K, 22061 kPa | 983.9 ± 1.2
303.14 K, 22488 kPa | 984.1 ± 1.2
303.14 K, 22529 kPa | 984.1 ± 1.2
303.14 K, 22605 kPa | 984.2 ± 1.2
303.14 K, 22942 kPa | 984.4 ± 1.2
303.14 K, 22983 kPa | 984.4 ± 1.2
303.14 K, 23655 kPa | 984.8 ± 1.2
303.14 K, 23688 kPa | 984.8 ± 1.2
303.14 K, 23722 kPa | 984.7 ± 1.2
303.14 K, 23763 kPa | 984.8 ± 1.2
303.14 K, 24089 kPa | 985 ± 1.2
303.14 K, 24131 kPa | 985.1 ± 1.2
303.14 K, 24166 kPa | 985.1 ± 1.2
303.14 K, 24356 kPa | 985.1 ± 1.2
303.14 K, 28039 kPa | 987.2 ± 1.2
303.14 K, 29427 kPa | 988 ± 1.2
303.15 K, 11258 kPa | 977.6 ± 1.2
303.15 K, 11434 kPa | 977.8 ± 1.2
303.15 K, 11462 kPa | 977.7 ± 1.2
303.15 K, 11546 kPa | 977.9 ± 1.2
303.15 K, 11738 kPa | 978 ± 1.2
303.15 K, 13121 kPa | 978.8 ± 1.2
303.15 K, 13570 kPa | 979 ± 1.2
303.15 K, 13874 kPa | 979.2 ± 1.2
303.15 K, 13902 kPa | 979.2 ± 1.2
303.15 K, 13922 kPa | 979.2 ± 1.2
303.15 K, 13972 kPa | 979.4 ± 1.2
303.15 K, 14222 kPa | 979.5 ± 1.2
303.15 K, 14324 kPa | 979.5 ± 1.2
303.15 K, 14456 kPa | 979.6 ± 1.2
303.15 K, 14482 kPa | 979.7 ± 1.2
303.15 K, 14511 kPa | 979.6 ± 1.2
303.15 K, 14536 kPa | 979.7 ± 1.2
303.15 K, 14567 kPa | 979.7 ± 1.2
303.15 K, 14592 kPa | 979.6 ± 1.2
